Patent US20260103474A1, “NOVEL COMPOUNDS FOR THE DIAGNOSIS OF TDP-43 PROTEINOPATHIES” (AC IMMUNE SA, priority 2022, published 2026)

Columns and labels:
[1] = molecular target: T1, Human brain derived TDP-43 aggregates (Homo sapiens, UniProt Q13148); experiment: Micro-radiobinding competition assay for binding affinity to TDP-43; details: for Ki: 0.24 nM to 2 μM vs tritiated reference ligand at 40 nM; for Human brain derived TDP-43 aggregates Mean % competition at 250 nM: non-radiolabeled compound at 250 nM vs tritiated reference ligand at 40 nM; for Human brain derived TDP-43 aggregates Mean % competition at 250 nM / Human brain derived TDP-43 aggregates Mean % competition at 2 μM: FTD sarkosyl-insoluble brain extracts; for Human brain derived TDP-43 aggregates Mean % competition at 2 μM: non-radiolabeled compound at 2 μM vs tritiated reference ligand at 40 nM
T1 construct: Human FTD sarkosyl-insoluble brain extracts were spotted onto microarray slides
Description: (§1) Human brain extracts were prepared as described in Laferriere et al., 2019, Nature Neurosc. A sample of brain tissue (frontal or temporal cortex) was homogenized at 1:4 (w/v) ratio in the homogenization-solubilization (HS) buffer at 4° C. using tissue homogenizer (Precellys) with CKmix homogenization tubes. The following sequence was used for homogenization: 3 cycles of 30 seconds at 5000 rpm (with 15 seconds pause between each cycle). Homogenized samples were aliquoted and stored at −80° C. in 1.5 mL low protein binding tubes.
(§2) Brain homogenates were thawed on ice and resuspended in HS buffer to obtain a final concentration of 2% sarkosyl, 1 unit/μL Benzonase and 1 mM MgCl2. The samples were then incubated at 37° C. under constant shaking at 600 rpm on a thermomixer for 45 minutes (min). The supernatants were collected in a new tube (sarkosyl-soluble fraction, S1). The pellet was resuspended in 1000 μL of myelin floatation buffer and centrifuged at 20,000 g for 60 min at 4° C. The supernatant was carefully removed to remove all the floating lipids. This step was repeated if all the lipids could not be removed in a single step. The pellet was subsequently washed with Phosphate-Buffered Saline (PBS) and centrifuged for 30 min at 20,000 g at 4° C. The final pellet was resuspended in 200 μL PBS and stored at −80° C. (sarkosyl-insoluble fraction). The samples were analyzed by immunoblotting in denaturing conditions.
Human FTD sarkosyl-insoluble brain extracts were spotted onto microarray slides. The slides were incubated with a tritiated reference ligand at 40 nM, and the example compounds (non-radiolabeled) at 2 μM and 250 nM. […] After incubation, slides were washed and scanned by a real-time autoradiography system (BeaQuant, ai4R). Quantification of the signal was performed by using the Beamage image analysis software (ai4R). Non-specific signal was determined with an excess of non-radiolabeled reference compound (2 μM) and specific binding was calculated by subtracting the non-specific signal from the total signal. Competition was calculated as percent, where 0% was defined as the specific binding in the presence of vehicle and 100% as the values obtained in the presence of excess of the non-radiolabeled reference compound. Ki values were calculated in GraphPad Prism8 by applying a nonlinear regression curve fit using a one site, specific binding model. Measurements were performed with at least two technical replicates in the two-concentration competition experiment and with one technical replicate in the experiments including a range of concentrations. For compounds tested in more than one experiment, the mean of the replicates or Ki values in independent experiments is reported.

[2] = molecular target: TDP-43 aggregates (Homo sapiens, UniProt Q13148); experiment: Classical autoradiography in brain sections from patients with FTD; assay type: binding
Description: All tissues were collected from donors for or from whom a written informed consent for a brain autopsy and the use of the material and clinical information for research purposes had been obtained by the respective brain banks. All samples were anonymized and coded. Frozen brain tissue blocks with confirmed TDP-43 pathology upon autopsy were processed using a cryotome to generate sections of 10 μm in thickness and mounted on glass slides. Sections were kept at −80° C. until use.
Brain sections were fixed for 15 minutes at 4° C. with 4% formaldehyde on ice and washed three times for eight minutes with 1×PBS at RT. Sections were blocked in assay buffer for 30 minutes (50 mM Tris-HCl, 0.9% NaCl+0.1% BSA). Cold test compound (Compound 1, Compound 8 or Compound 17) was diluted in assay buffer to 4 μM and applied on half of the sections for 40 minutes at RT to determine non-specific binding. The remaining half of the sections were only incubated with assay buffer (total binding). Following this incubation, an equal volume of the corresponding tritiated compound (i.e. [^3H]-Compound 1, [^3H]-Compound 8 or [^3H]-Compound 17, respectively), diluted to 20 nM (for [^3H]-Compound 1 and [^3H]-Compound 8) or 10 nM ([^3H]-Compound 17) or increasing concentration from 0.1 to 200 nM (for [^3H]-Compound 1 and [^3H]-Compound 17), was added on sections and incubated for 2 hours at RT and then washed as follows: once in ice-cold 50 mM Tris-HCl pH 7.4 buffer for one minute, twice in ice-cold PBS for one minute, once in ice-cold 50 mM Tris-HCl pH 7.4 buffer for one minute and finally rinsed briefly in ice-cold distilled water.
Sections were subsequently dried under a stream of air and mounted with a copper-based adhesive strip. Bound radioactivity was quantified by exposing the slides in a real-time autoradiography system (Beaquant™ AI4R) for 2 hours, with measurement settings configured for tritium. Beavacq software (AI4R) was used to acquire the image which was subsequently quantified using Beamage image analysis software (AI4R). Specific binding (non-specific binding subtracted from total) and displacement (total binding divided by non-specific) were calculated. Bar graphs were generated using GraphPad Prism. For Kd determination on brain sections, the specific binding data were fitted with a non-linear regression analysis using a one-site specific binding model in GraphPad Prism.

[3] = molecular target: T2, Abeta (Homo sapiens, UniProt P05067); experiment: Radiobinding competition assay using Abeta reference compound on AD insoluble fraction of brain homogenates; assay type: binding; details: against [3H]Abeta reference compound; cells printed in μM; read-out: Ki on AD brain homogenates
T2 construct: an AD donor with confirmed burden of Tau and Abeta aggregates; from tissue; host or cells: frontal cortex of a human AD donor, Triton/sucrose-insoluble fraction
Description: Approximately 4 g of frozen tissue block from frontal cortex brain region was used from an AD donor with confirmed burden of Tau and Abeta aggregates. The tissue was homogenized in three volumes (1:3 w/v) of high salt buffer (50 mM Tris-HCl pH 7.5, 750 mM NaCl, 5 mM EDTA) supplemented with protease inhibitors (Complete; Roche 11697498001) at 4° C. with a glass Dounce homogenizer. The homogenate was transferred into polycarbonate centrifuge bottles (16×76 mm; Beckman 355603) and centrifuged at 100,000×g (38,000 RPM) in an ultracentrifuge (Beckman, XL100K) for 60 minutes at 4° C. using a pre-cooled 70.1 rotor (Beckman, 342184). Pellets were resuspended in high salt buffer supplemented with 1% Triton X-100 and homogenized at 4° C. with a syringe. The homogenates were centrifuged again at 100,000×g (38,000 RPM, 70.1 rotor) for 60 minutes at 4° C. Pellets were resuspended in high salt buffer supplemented with 1% Triton X-100 and 1 M sucrose and homogenized at 4° C. with a syringe. The homogenates were centrifuged at 100,000×g (38,000 RPM, 70.1 rotor) for 60 minutes at 4° C. The resulting pellets containing insoluble fraction were resuspended in PBS (1:2 w/v relative to starting tissue weight), aliquoted and stored at −80° C. until use.
The reaction was performed in assay buffer (50 mM Tris pH 7.5 in 0.9% NaCl, 0.1% BSA) and incubated for two hours at room temperature (RT). Samples in duplicate were then filtered under vacuum in GF/C filter plates (PerkinElmer) to trap the aggregates with the bound radioligand and washed with 100 μL ice-cold 50 mM Tris pH 7.5. The GF/C filters were then dried and scintillation liquid (UltimateGold, PerkinElmer, 6013151) was added in each well. The filters were analyzed on a Microbeta2 scintillation counter (PerkinElmer). Values for the maximal signal were obtained in the absence of non-radiolabeled compound, while 100% displacement was obtained using 1 μM of non-radiolabeled reference compound. Ki values were calculated by nonlinear regression, using a one site—fit Ki model in Prism V7 (GraphPad).

[4] = molecular target: human FTD Type A sarkosyl-insoluble brain extracts (Homo sapiens, UniProt Q13148); experiment: Kd determination by micro-radiobinding assay on FTD Type A extracts; assay type: binding; details: tritiated compound 1.29 to 300 nM
Description: as §1, §2
Human FTD sarkosyl-insoluble brain extracts were spotted onto microarray slides. The slides were incubated with [^3H]-Compounds 1, 7, 8, 9, 15, 16 and 17 in a range of concentrations, varying from 1.29 to 300 nM. After incubation, slides were washed and scanned by a real-time autoradiography system (BeaQuant, ai4R). Quantification of the signal was performed by using the Beamage image analysis software (ai4R). Non-specific signal was determined with an excess of non-radiolabeled compound 1, 7, 8, 9, 15, 16 and 17 (1 μM), respectively, and specific binding was calculated by subtracting the non-specific signal from the total signal.
The Kd (Dissociation constant) and R^2 (parameter ranging between 0.0 and 1.0 that quantifies the goodness of fit, and the best curve fit obtained with value of 1.0) were obtained by fitting the specific binding data with non-linear regression analysis, using a one-site specific binding model in GraphPad Prism8.

[5] = PK studies in healthy monkey (PET); assay type: in vivo; details: iv, Non-Human Primate; for Time of brain entry post injection / Washout: peak to half peak: whole brain
Description: Non-Human Primate (NHP) was injected intravenously (iv) with the [^18F]-labeled Compound 1 ([^18F]Compound 1) (4.2 mCi) or with the [^18F]-labeled Compound 17 ([^18F]-Compound 17) (5.3 mCi). Monkey PET scans were performed using a Siemens Focus 220. PET acquisition started immediately before the radioactive dose was injected. Images were generated as dynamic scans for 120 minutes with head focused.

[6] = total binding divided by non-specific binding, grey matter, self-block with cold compound

T1 sequence (Q13148 261-414 limits assumed): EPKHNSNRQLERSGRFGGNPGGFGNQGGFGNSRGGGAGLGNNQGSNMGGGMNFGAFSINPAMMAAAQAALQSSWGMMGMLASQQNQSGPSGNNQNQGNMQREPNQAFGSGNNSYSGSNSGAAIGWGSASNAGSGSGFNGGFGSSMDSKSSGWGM
TDP-43 aggregates, sequence (Q13148 whole entry): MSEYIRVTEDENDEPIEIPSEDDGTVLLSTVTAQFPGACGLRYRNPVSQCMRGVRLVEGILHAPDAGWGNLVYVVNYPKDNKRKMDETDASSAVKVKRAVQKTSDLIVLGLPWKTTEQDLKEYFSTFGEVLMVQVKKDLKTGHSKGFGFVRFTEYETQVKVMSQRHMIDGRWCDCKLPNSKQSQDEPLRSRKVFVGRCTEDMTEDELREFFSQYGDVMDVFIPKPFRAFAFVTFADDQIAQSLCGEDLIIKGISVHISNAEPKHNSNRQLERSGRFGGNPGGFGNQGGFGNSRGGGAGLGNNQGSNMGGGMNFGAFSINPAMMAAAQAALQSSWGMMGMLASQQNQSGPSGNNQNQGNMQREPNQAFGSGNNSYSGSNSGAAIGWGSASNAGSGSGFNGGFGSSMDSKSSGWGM
T2 sequence (P05067 672-713 limits assumed): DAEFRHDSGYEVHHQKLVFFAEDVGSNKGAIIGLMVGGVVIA
human FTD Type A sarkosyl-insoluble brain extracts, sequence (Q13148 263-414 limits assumed): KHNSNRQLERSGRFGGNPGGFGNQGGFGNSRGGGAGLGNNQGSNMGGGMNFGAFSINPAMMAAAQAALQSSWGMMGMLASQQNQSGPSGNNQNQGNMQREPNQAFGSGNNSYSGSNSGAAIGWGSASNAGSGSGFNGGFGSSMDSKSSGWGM

| SMILES | Ki [1] [nM] | Human brain derived TDP-43 aggregates Mean % competition at 250 nM [1] [%] | Human brain derived TDP-43 aggregates Mean % competition at 2 μM [1] [%] | Ki [3] [µM] | Kd [4] [nM] | other results |
| --- | --- | --- | --- | --- | --- | --- |
| O=C1c2sc(-c3ccc(N4CC[C@H](F)C4)nc3F)nc2CCN1c1cccnc1 [Compound 8, (S)-2-(2-fluoro-6-(3-fluoropyrrolidin-1-yl)pyridin-3-yl)-5-(pyridin-3-yl)-6,7-dihydrothiazolo[5,4-c]pyridin-4(5H)-one] | 73 | 55 | 73 | > 1 |  | Displacement on FTLD-TDP type A and B compared to non-demented control ([2]; classical autoradiography): increased displacement; cARG displacement on FTLD-TDP Type A case [2, 6]: 3.0; cARG displacement on FTLD-TDP Type B case [2, 6]: 3.3; cARG displacement on non-demented control [2, 6]: 2.3 |
| [3H]c1cnc(N2CCc3nc(-c4cc([3H])c(N5CC[C@@H](F)C5)nc4F)sc3C2=O)nc1 [[^3H]-Compound 15, Tritiated 2-[2-fluoro-6-[(3R)-3-fluoropyrrolidin-1-yl]-3-pyridyl]-5-pyrimidin-2-yl-6,7-dihydrothiazolo[5,4-c]pyridine-4-one] |  |  |  |  | 21 ± 7 |  |
| O=C1c2sc(-c3ccc(N4CCC(CO)CC4)nc3[18F])nc2CCN1c1cccnc1 [[^18F]-Compound 17, 2-(2-(fluoro-^18F)-6-(4-(hydroxymethyl)piperidin-1-yl)pyridin-3-yl)-5-(pyridin-3-yl)-6,7-dihydrothiazolo[5,4-c]pyridin-4(5H)-one] |  |  |  |  |  | SUVmax whole brain [5]: 1.1 SUVmax; Time of brain entry post injection [5]: 4.5 min; Washout: peak to half peak [5]: < 13 min |
| O=C1c2sc(-c3ccc(N4CC[C@@H]([18F])C4)nc3F)nc2CCN1c1cccnc1 [[^18F]-Compound 1, fluorinated 2-[2-fluoro-6-[(3R)-3-fluoropyrrolidin-1-yl]-3-pyridyl]-5-(3-pyridyl)-6,7-dihydrothiazolo[5,4-c]pyridin-4-one] |  |  |  |  |  | SUVmax whole brain [5]: 2.7 SUVmax; Time of brain entry post injection [5]: 5.5 min; Washout: peak to half peak [5]: < 17 min |
| N#Cc1c(N)cccc1N1CCc2nc(-c3ccc(N4CCC[C@H](F)C4)nc3F)sc2C1=O [Compound 31] | 4 | 62 | 70 | > 1 |  |  |
| O=C1c2sc(-c3ccc(N4CCCCC4)nc3F)nc2CCN1c1ccnc(F)c1 [Compound 23, 2-(2-fluoro-6-(piperidin-1-yl)pyridin-3-yl)-5-(2-fluoropyridin-4-yl)-6,7-dihydrothiazolo[5,4-c]pyridin-4(5H)-one] | 25 | 73 | 104 | > 1 |  |  |

Further lines, with some results ahead:

| Ki [1] [nM] | Human brain derived TDP-43 aggregates Mean % competition at 250 nM [1] [%] | Human brain derived TDP-43 aggregates Mean % competition at 2 μM [1] [%] | Ki [3] [µM] | Kd [4] [nM] | SMILES | other results |
| --- | --- | --- | --- | --- | --- | --- |
|  |  |  |  | 39 ± 11 | [3H]c1cc(N2CCc3nc(-c4cc([3H])c(N5CC[C@@H](F)C5)nc4F)sc3C2=O)ccn1 [[^3H]-Compound 7, Tritiated (R)-2-(2-fluoro-6-(3-fluoropyrrolidin-1-yl)pyridin-3-yl)-5-(pyridin-4-yl)-6,7-dihydrothiazolo[5,4-c]pyridin-4(5H)-one] |  |
|  |  |  |  | 47 ± 8 | [3H]c1cncc(N2CCc3nc(-c4cc([3H])c(N5CC[C@H](F)C5)nc4F)sc3C2=O)c1 [[^3H]-Compound 8, tritiated (S)-2-(2-fluoro-6-(3-fluoropyrrolidin-1-yl)pyridin-3-yl)-5-(pyridin-3-yl)-6,7-dihydrothiazolo[5,4-c]pyridin-4(5H)-one] |  |
|  |  |  |  | 24 ± 3 | O=C1c2sc(-c3ccc(N4CC[C@H](F)C4)nc3F)nc2CCN1c1ncccn1 [[^3H]-Compound 16] |  |
